Data reported in PMC10763817, “Development of dual enzyme responsive molecular AND logic gate” (Turkish Journal of Chemistry, 2021).

System: T1, tyrosinase (mushroom tyrosinase, EC 1.14.18.1)
T1 construct: gene PPO3; commercial native enzyme from mushroom (Sigma)
Assay: fluorescence of released resorufin (ex […] nm, em […] nm), Lineweaver-Burk plot
Format: biochemical
Settings: tyrosinase 3 U/mL alone, no esterase; 10-50 μM compound 2; PBS pH 7.4, 37 °C

CC(=O)Oc1cccc(COc2ccc3nc4ccc(=O)cc-4oc3c2)c1 [compound 2, 3-(((3-oxo-3H-phenoxazin-7-yl)oxy)methyl)phenyl acetate]
Km: 44.3 µM
